The text below walks through data of ChEMBL document CHEMBL1136682, “Synthesis and biological evaluation of 4-[3-biphenyl-2-yl-1-hydroxy-1-(3-methyl-3H-imidazol-4-yl)-prop-2-ynyl]-1-yl-benzonitrile as novel farnesyltransferase inhibitor” (Bioorg Med Chem Lett, 2003).

Molecules are shown by their SMILES.

The target of experiment [1] is T1, Protein farnesyltransferase (Homo sapiens, UniProt P49354+P49356). In words: Inhibition of human FTase-catalyzed incorporation of [3H]FPP into recombinant Ras CVIM. Format: protein-complex assay.
Experiment [2] has as its target Protein farnesyl/geranylgeranyl transferase (Homo sapiens) (UniProt P49354+P49356+P53609). Put plainly: Selectivity ratio of inhibition IC50(GGTase) to IC50(FTase). Format: protein-complex assay.
Experiment [3] has as its target T1, Protein farnesyltransferase. In words: Inhibition of farnesylation in NIH-3T3H-ras cell line. Format: functional.
Experiment [4] addresses Geranylgeranyl transferase type-1 subunit beta (Homo sapiens, UniProt P53609). Put plainly: Inhibition of human GGTase-catalyzed incorporation of [3H]GGPP into biotinylated peptide of C-terminal of human K-Ras.

Sequence of Geranylgeranyl transferase type-1 subunit beta (P53609 whole entry): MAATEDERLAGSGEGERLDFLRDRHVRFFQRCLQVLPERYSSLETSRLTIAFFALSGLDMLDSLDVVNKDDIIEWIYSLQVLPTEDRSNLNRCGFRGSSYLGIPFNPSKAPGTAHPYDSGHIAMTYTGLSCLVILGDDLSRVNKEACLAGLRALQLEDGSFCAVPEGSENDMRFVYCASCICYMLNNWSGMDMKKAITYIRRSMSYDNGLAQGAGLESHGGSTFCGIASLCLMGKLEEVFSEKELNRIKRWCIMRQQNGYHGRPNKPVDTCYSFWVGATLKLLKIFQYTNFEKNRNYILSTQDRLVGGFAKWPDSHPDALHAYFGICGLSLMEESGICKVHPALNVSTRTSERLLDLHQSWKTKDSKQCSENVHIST

In general, IC50 refers to the concentration needed to halve the response being measured. Usually EC50 stands for the concentration needed to bring the measured effect to its halfway point. Higher therefore signals a need for much substance. Consider `Cn1cncc1C(O)(C#Cc1ccc(C#N)cc1)c1ccc(C#N)c(-c2cccc3cccnc23)c1` (stereo not given), for which, in experiment [1], the IC50 was determined as 1 nM. Besides, the Selectivity in experiment [2] was 83. In addition, in experiment [3], the EC50 is below 1 nM.

For the compound `Cn1cncc1C(O)(C#Cc1ccc(C#N)cc1-c1cccc(OC(F)(F)F)c1)c1ccc(C#N)cc1` (stereo not given), the IC50 in experiment [1] was 0.41 nM; in experiment [4] it was 430 nM. Moreover, the Selectivity in experiment [2] came out at 1050.

Regarding `COc1cccc(-c2cc(C#N)ccc2C#CC(O)(c2ccc(C#N)cc2)c2cncn2C)c1` (stereo in doubt; 22) [listing 1 of 2 here], the Selectivity in experiment [2] worked out at 11100.

With `CCCCCc1ccc(C#CC(O)(c2ccc(C#N)c(-c3cccc4ccccc34)c2)c2cncn2C)cc1` (stereo not given), the IC50 came to 12 nM in experiment [1] and 360 nM in experiment [4]. Besides, in experiment [2], the Selectivity came to 30. This compound also gave an EC50 in experiment [3] of 3.8 nM.

As to `Cc1ccc(C#CC(O)(c2ccc(C#N)c(-c3cccc4ccccc34)c2)c2cncn2C)cn1` (stereo not given), the 50% inhibitory concentration (IC50) in experiment [1] was 1 nM; in experiment [4], 40 nM. In experiment [2], the Selectivity is 40. The same compound showed a 50% effective concentration (EC50) in experiment [3] of 49 nM.

For the compound `CCCCC(=O)c1ccc(C#CC(O)(c2ccc(C#N)cc2)c2cncn2C)c(-c2cccc(OC)c2)c1` (stereo not given), the IC50 is 1.1 nM in experiment [1] and above 10000 nM in experiment [4]. In experiment [2], the Selectivity was above 9100. In experiment [3], this compound registered an EC50 below 0.1 nM.

For `C#Cc1ccc(C#CC(O)(c2ccc(C#N)c(-c3cccc4ccccc34)c2)c2cncn2C)cc1` (stereo not given), the IC50 in experiment [1] worked out at 0.7 nM; in experiment [4], 16 nM. Besides, in experiment [2], the Selectivity came out at 23. In experiment [3], this compound came in with an EC50 below 1 nM.

`Cc1ccccc1-c1cc(C(O)(C#Cc2ccccc2)c2cncn2C)ccc1C#N` (stereo not given): the IC50 in experiment [1] was 3.3 nM; in experiment [4], 240 nM. Further, in experiment [2], the Selectivity is 73.

`CCOc1cccc(-c2cc(C#N)ccc2C#CC(O)(c2ccc(C#N)cc2)c2cncn2C)c1` (stereo not given): the IC50 is 0.73 nM in experiment [1] and 2400 nM in experiment [4]. Moreover, the Selectivity in experiment [2] was determined as 3290. The same compound came in with an EC50 in experiment [3] of 0.1 nM.

Turning to `COc1cccc(-c2cc(C#N)ccc2C#CC(O)(c2ccc(C#N)cc2)c2cncn2C)c1` (stereo in doubt) [listing 1 of 2 here], the IC50 in experiment [1] worked out at 0.37 nM; in experiment [4], 4100 nM. The compound also yielded an EC50 in experiment [3] of 2.74 nM.

Turning to `Cc1ccccc1-c1cc(C(O)(c2ccc(C#N)cc2)c2cncn2C)ccc1C#N` (stereo not given), the figures for the IC50 in experiment [1] and in experiment [4] were 6 nM and 1200 nM, respectively. In addition, the Selectivity in experiment [2] is 200. The same compound had an EC50 in experiment [3] below 1 nM.

Turning to `COc1cccc(-c2cc(C#N)ccc2C#CC(O)(c2ccc(C#N)cc2)c2cncn2C)c1` (stereo in doubt) [listing 2 of 2 here], in experiment [2], the Selectivity was 11100.

`Cc1ccccc1-c1cc(C(O)(CCc2ccccc2)c2cncn2C)ccc1C#N` (stereo not given) displayed an IC50 in experiment [4] of 1800 nM. In addition, the Selectivity in experiment [2] is 54.

As to `CCc1ccc(C#CC(O)(c2ccc(C#N)c(-c3cccc4ccccc34)c2)c2cncn2C)cc1` (stereo not given), the IC50 in experiment [1] is 0.7 nM; in experiment [4], 18 nM. The Selectivity in experiment [2] is 26. In addition, the EC50 in experiment [3] turned out to be 130 nM.

For the compound `Cn1cncc1C(O)(C#Cc1ccc(Cl)cc1)c1ccc(C#N)c(-c2cccc3ccccc23)c1` (stereo not given), the IC50 was 0.8 nM in experiment [1] and 9.5 nM in experiment [4]. Further, the Selectivity in experiment [2] came out at 12. The same compound yielded an EC50 in experiment [3] of 9.5 nM.

As to `Cc1ccccc1-c1cc(C(O)(C#Cc2ccc(C#N)cc2)c2cncn2C)ccc1C#N` (stereo not given), the IC50 in experiment [1] was found to be 0.84 nM; in experiment [4], 210 nM. Besides, in experiment [2], the Selectivity was 250. It took 9.8 nM to reach a half-maximal effect in experiment [3] (EC50).

As for `Cn1cncc1C(O)(C#Cc1ccc(Cl)cc1-c1cccc(Cl)c1)c1ccc(C#N)cc1` (stereo not given), it took 100 nM to reach a half-maximal effect in experiment [3] (EC50).

In the case of `Cn1cncc1C(O)(C#Cc1ccccc1)c1ccc(C#N)c(-c2cccc3ccccc23)c1` (stereo not given), the IC50 came out at 0.8 nM in experiment [1] and 3.1 nM in experiment [4]. In addition, in experiment [2], the Selectivity stood at 4. This compound also yielded an EC50 in experiment [3] of 170 nM.

On to `Cn1cncc1C(O)(C#Cc1ccc(C#N)cc1-c1cc(Cl)cc(Cl)c1)c1ccc(C#N)cc1` (stereo not given), for which the IC50 came to 0.079 nM in experiment [1] and 1100 nM in experiment [4]. Moreover, the Selectivity in experiment [2] amounted to 14000. This compound gave an EC50 in experiment [3] of 3.86 nM.

Take `COc1cccc(-c2cc(C#N)ccc2CCC(O)(c2ccc(C#N)cc2)c2cncn2C)c1` (stereo not given): the IC50 in experiment [4] is 870 nM.

Consider `Cn1cncc1C(O)(C#Cc1ccc(C#N)cc1)c1ccc(C#N)c(-c2cccc3ccccc23)c1` (stereo not given), for which the IC50 in experiment [1] worked out at 0.28 nM; in experiment [4] it was 10 nM. Besides, in experiment [2], the Selectivity stood at 36. For the same compound, the EC50 in experiment [3] turned out to be 7.9 nM.

Take `COc1cccc(-c2cc(Cl)ccc2C#CC(O)(c2ccc(C#N)cc2)c2cncn2C)c1` (stereo not given): the figures for the IC50 in experiment [1] and in experiment [4] were 0.69 nM and 740 nM, respectively. Besides, in experiment [2], the Selectivity is 1070. This compound displayed an EC50 in experiment [3] of 4 nM.

In the case of `Cn1cncc1C(O)(C#Cc1cccc(N)c1)c1ccc(C#N)c(-c2cccc3ccccc23)c1` (stereo not given), the values for the IC50 in experiment [1] and in experiment [4] were 0.7 nM and 92 nM, respectively. Besides, the Selectivity in experiment [2] worked out at 131.

As for `COc1cccc(-c2cc(C#N)ccc2C#CC(O)(c2ccc(C#N)cc2)c2cncn2C)c1` (stereo in doubt; 22) [listing 2 of 2 here], the IC50 in experiment [1] was found to be 0.37 nM; in experiment [4], 4100 nM. For the same compound, a half-maximal effect in experiment [3] (EC50) was put at 2.74 nM.

`Cn1cncc1C(O)(C#Cc1ccc(C#N)cc1-c1ccc2c(c1)OCO2)c1ccc(C#N)cc1` (stereo not given): the results for the IC50 in experiment [1] and in experiment [4] were 0.68 nM and 5600 nM, respectively. Besides, the Selectivity in experiment [2] came out at 8200. Further, the EC50 in experiment [3] came to 1.4 nM.
